Results as given in the CheMixHub viscosity set.
Values joined by “and” are separate entries in the source; they are usually repeats but may differ in a detail not shown here. Equal values may be shown once. ± gives the uncertainty stated by the source.

Assay: xn = mol fraction of the nth substance listed

[I-].[Li+] + O
Conditions	viscosity [mPa·s]
293.15 K, 100 kPa, x1 = 0.005076	1.025 ± 0.0093
293.15 K, 101 kPa, x1 = 0.00701	1.029 ± 0.027
293.15 K, 101 kPa, x1 = 0.01933	1.076 ± 0.028
293.15 K, 101 kPa, x1 = 0.04884	1.205 ± 0.032
293.15 K, 101 kPa, x1 = 0.06296	1.292 ± 0.034
293.15 K, 101 kPa, x1 = 0.08324	1.429 ± 0.037
293.15 K, 101 kPa, x1 = 0.1073	1.656 ± 0.043
293.15 K, 101 kPa, x1 = 0.1418	2.218 ± 0.058
303.15 K, 101 kPa, x1 = 0.0017	0.808 ± 0.021
303.15 K, 101 kPa, x1 = 0.00416	0.813 ± 0.021
303.15 K, 101 kPa, x1 = 0.00701	0.821 ± 0.021
303.15 K, 101 kPa, x1 = 0.01933	0.866 ± 0.022
303.15 K, 101 kPa, x1 = 0.02768	0.895 ± 0.023
303.15 K, 101 kPa, x1 = 0.04884	0.977 ± 0.025
303.15 K, 101 kPa, x1 = 0.06296	1.049 ± 0.027
303.15 K, 101 kPa, x1 = 0.08324	1.178 ± 0.03
303.15 K, 101 kPa, x1 = 0.1073	1.376 ± 0.035
303.15 K, 101 kPa, x1 = 0.1418	1.819 ± 0.047
310.15 K, 101 kPa, x1 = 0.000205	0.6972 ± 0.0061
310.15 K, 101 kPa, x1 = 0.00126	0.6998 ± 0.0062
310.15 K, 101 kPa, x1 = 0.001978	0.7017 ± 0.0062
310.15 K, 101 kPa, x1 = 0.002695	0.7035 ± 0.0063
310.15 K, 101 kPa, x1 = 0.003679	0.706 ± 0.0063
310.15 K, 101 kPa, x1 = 0.005197	0.7098 ± 0.0064
310.15 K, 101 kPa, x1 = 0.005988	0.7118 ± 0.0065
323.15 K, 101 kPa, x1 = 0.0017	0.555 ± 0.014
323.15 K, 101 kPa, x1 = 0.00416	0.561 ± 0.014
323.15 K, 101 kPa, x1 = 0.00701	0.567 ± 0.015
323.15 K, 101 kPa, x1 = 0.01933	0.602 ± 0.015
323.15 K, 101 kPa, x1 = 0.02768	0.628 ± 0.016
323.15 K, 101 kPa, x1 = 0.04884	0.693 ± 0.018
323.15 K, 101 kPa, x1 = 0.06296	0.752 ± 0.019
323.15 K, 101 kPa, x1 = 0.08324	0.849 ± 0.022
323.15 K, 101 kPa, x1 = 0.1073	1.002 ± 0.026
323.15 K, 101 kPa, x1 = 0.1418	1.344 ± 0.035

O=CC(Cl)(Cl)Cl + OCc1ccccc1
viscosity [mPa·s], 101 kPa
Conditions	298.15 K	323.15 K
x1 = 0.0986	7.956 ± 0.33	3.521 ± 0.15
x1 = 0.1891	12.34 ± 0.51	4.774 ± 0.2
x1 = 0.2795	18.57 ± 0.77	6.41 ± 0.27
x1 = 0.3562	21.83 ± 0.91	6.783 ± 0.28
x1 = 0.4064	40.42 ± 1.7	9.558 ± 0.4
x1 = 0.4364	50.35 ± 2.1	10.85 ± 0.46
x1 = 0.4751	55.16 ± 2.3	10.57 ± 0.45
x1 = 0.493	54.24 ± 2.2	10.21 ± 0.45
x1 = 0.4998	51.18 ± 2.1	10.01 ± 0.94
x1 = 0.5395	39.89 ± 1.7	8.491 ± 0.36
x1 = 0.5925	24.53 ± 1	6.78 ± 0.28
x1 = 0.6679	9.262 ± 0.39	3.796 ± 0.16
x1 = 0.7564	2.888 ± 0.12	1.639 ± 0.068
x1 = 0.8827	2.072 ± 0.086	1.307 ± 0.054

O=C(O)CCl + Oc1ccccc1
323.15 K, 101 kPa
Conditions	viscosity [mPa·s]
x2 = 0.1128	3.125 ± 0.079
x2 = 0.1918	3.113 ± 0.079
x2 = 0.26	3.103 ± 0.079
x2 = 0.3059	3.112 ± 0.079
x2 = 0.405	3.121 ± 0.079
x2 = 0.5113	3.142 ± 0.08
x2 = 0.606	3.203 ± 0.081
x2 = 0.6735	3.242 ± 0.082
x2 = 0.7037	3.277 ± 0.083
x2 = 0.7567	3.308 ± 0.084
x2 = 0.8216	3.338 ± 0.085
x2 = 0.903	3.353 ± 0.085

CC(C)C(=O)O + [2H]O[2H]
101 kPa, x1 = 0.111
Conditions	viscosity
318.1 K	2.122 ± 0.17 mPa·s and 2.132 ± 0.2 mPa·s and 2.14 ± 0.2 mPa·s
318.11 K	2.112 ± 0.16 mPa·s
318.12 K	2.092 ± 0.15 mPa·s
318.13 K	2.074 ± 0.14 mPa·s
318.14 K	2.06 ± 0.14 mPa·s
318.15 K	2.046 ± 0.13 mPa·s
318.17 K	2.018 ± 0.11 mPa·s
318.19 K	2.011 ± 0.11 mPa·s
318.2 K	1.997 ± 0.086 mPa·s
318.23 K	1.973 ± 0.078 mPa·s
318.26 K	1.956 ± 0.073 mPa·s
318.29 K	1.944 ± 0.065 mPa·s
318.3 K	1.934 ± 0.12 mPa·s
318.36 K	1.912 ± 0.093 mPa·s
318.39 K	1.902 ± 0.072 mPa·s
318.48 K	1.876 ± 0.058 mPa·s
318.56 K	1.857 ± 0.04 mPa·s
318.66 K	1.838 ± 0.04 mPa·s
318.69 K	1.833 ± 0.037 mPa·s
318.98 K	1.788 ± 0.029 mPa·s
319.21 K	1.763 ± 0.023 mPa·s
319.69 K	1.717 ± 0.02 mPa·s
320.21 K	1.677 ± 0.017 mPa·s
321.2 K	1.615 ± 0.016 mPa·s
322.2 K	1.562 ± 0.014 mPa·s

CCCCCCCCCCCCCCCC + c1ccccc1
Conditions	viscosity
298 K, 101 kPa, x2 = 0.5	1.65 ± 0.043 mPa·s and 1.651 ± 0.043 mPa·s
298.15 K, 101.33 kPa, x1 = 0.0535	0.6803 ± 0.006 mPa·s
298.15 K, 101.33 kPa, x1 = 0.09944	0.7563 ± 0.0066 mPa·s
298.15 K, 101.33 kPa, x1 = 0.2199	0.9761 ± 0.0082 mPa·s
298.15 K, 101.33 kPa, x1 = 0.3234	1.161 ± 0.0095 mPa·s
298.15 K, 101.33 kPa, x1 = 0.4341	1.429 ± 0.011 mPa·s
298.15 K, 101.33 kPa, x1 = 0.5194	1.649 ± 0.013 mPa·s
298.15 K, 101.33 kPa, x1 = 0.641	1.972 ± 0.015 mPa·s
298.15 K, 101.33 kPa, x1 = 0.6928	2.107 ± 0.016 mPa·s
298.15 K, 101.33 kPa, x1 = 0.8361	2.492 ± 0.019 mPa·s
298.15 K, 101.33 kPa, x1 = 0.9416	2.887 ± 0.022 mPa·s
318 K, 101 kPa, x2 = 0.5	1.192 ± 0.032 mPa·s and 1.193 ± 0.032 mPa·s
